Experimental data published in patent US20220096509A1, “Reformulating Hospital Gentamicin to reduce the risk of hearing loss while maintaining antimicrobial activity” (priority 2019, published 2022).
Where “and” joins values, the source holds several entries; their conditions need not be identical. Equal values may be shown once. Entries after “also recorded” stand apart in the source; their conditions may differ. Read-outs that look alike come from different tables or passages of the source.

Tests used:
[1] = system: rat cochlear hair cells; details: for EC50: read-out: EC50±SE, hair cell survival (ototoxicity)
[2] = system: S. aureus, E. coli, K. pneumoniae, P. aeruginosa strains; test: Antimicrobial breadth and potency (MIC) across 40 bacterial strains; type: cell-based
Text: (§1) The colors represent different species, the numbers in the columns refer to the number of individual strains inhibited, where black=S. aureus, grey=E. coli, blue=K. pneumoniae, white=P. aeruginosa. […] (2B) The MIC values for each strain (diamond symbols) split by species, where Hospital=red, C1=orange, blue=C1a, cyan=C2, green=C2a, purple=C2b (grey scale only). Filled symbols indicate strains with antimicrobial resistance. The box indicates the 25-75 percentiles, stars indicate geometric means, *=P<0.05, **=P<0.01 tested using Mann Whitney U Non-Parametric analysis. […] (2C) The antimicrobial breadths of the impurities relative to a hospital bottle. […] (2D) The MIC values for each strain split by species.
(§2) The antimicrobial activity of the main components of gentamicin were studied relative to a single hospital bottle (gentamicin mixture) from Stanford University Hospital.

[3] = system: K. pneumoniae; test: MIC against K. pneumoniae strains; type: cell-based; details: Mann Whitney U Test
Text: (§3) […]. The colors represent different species, the numbers in the columns refer to the number of individual strains inhibited, where black=S. aureus, grey=E. coli, blue=K. pneumoniae, white=P. aeruginosa. The hospital bottle inhibits 35/40 strains tested, with the C-components inhibiting 31-35 strains. (2B) The MIC values for each strain (diamond symbols) split by species, where Hospital=red, C1=orange, blue=C1a, cyan=C2, green=C2a, purple=C2b (grey scale only). Filled symbols indicate strains with antimicrobial resistance. The box indicates the 25-75 percentiles, stars indicate geometric means, *=P<0.05, **=P<0.01 tested using Mann Whitney U Non-Parametric analysis. […] There are also some differences between individual components in S. aureus and P. aeruginosa. (2C) The antimicrobial breadths of the impurities relative to a hospital bottle. The hospital bottle inhibits 35/40 strains tested, with the impurities Gent B, Gent A, Gent X and G418 inhibiting 15-21 strains. One impurity, Sisomicin inhibited 35/40 strains. (2D) The MIC values for each strain split by species. […].

[4] = system: rat cochlear hair cells; test: tissue or blood; details: read-out: EC50±SE, hair cell survival (ototoxicity)
[5] = system: S. aureus; type: cell-based; details: for antimicrobial potency relative to hospital bottle: Mann Whitney U Test
Text: as §1, §2

[6] = system: E. coli; test: MIC against E. coli strains; type: cell-based; details: Mann Whitney U Test
Text: as §3

[7] = system: P. aeruginosa; test: MIC against P. aeruginosa strains; type: cell-based
Text: as §1, §2

[8] = mid-apical region of the cochlea, n>5 per data point, logarithmic function best fit

## CN[C@@H]1[C@@H](O)[C@@H](O[C@@H]2[C@@H](O)[C@H](O[C@H]3O[C@H]([C@@H](C)N)CC[C@H]3N)[C@@H](N)C[C@H]2N)OC[C@]1(C)O [C2, gentamicin C2]
[1]
  ototoxicity among the drug components: most ototoxic component
[1]; [8]
  EC50: 402 ± 38 µM

## CN[C@@H]1[C@@H](O)[C@@H](O[C@@H]2[C@@H](O)[C@H](O[C@H]3O[C@H]([C@@H](C)O)[C@@H](O)[C@H](O)[C@H]3N)[C@@H](N)C[C@H]2N)OC[C@]1(C)O [G418, geneticin, reference compound]
[1]
  ototoxicity relative to hospital bottle: more ototoxic at lower doses than the hospital but requires a higher dose to kill all hair cells than the hospital

## CN[C@@H]1[C@@H](O)[C@@H](O[C@@H]2[C@@H](O)[C@H](O[C@H]3O[C@H](CN)[C@@H](O)[C@H](O)[C@H]3O)[C@@H](N)C[C@H]2N)OC[C@]1(C)O [Gent B]
[2]; all species tested, P<0.05, n≥8 strains
  antimicrobial potency relative to hospital bottle: significantly less potent than the hospital bottle

## CN[C@@H]1[C@@H](O)[C@@H](O[C@@H]2[C@@H](O)[C@H](O[C@H]3OC(CN)=CC[C@H]3N)[C@@H](N)C[C@H]2N)OC[C@]1(C)O [Sisomicin]
[2]; 40 strains tested, breadth defined as MIC value ≤4μg/ml
  number of strains inhibited (antimicrobial breadth): 35/40
[3]
  antimicrobial potency relative to hospital bottle: equi-potent to the hospital
[4]
  EC50: 212 ± 7 µM
[1]
  ototoxicity relative to hospital bottle: more ototoxic than the hospital
[5]; S. aureus
  antimicrobial potency relative to hospital bottle: more potent than the hospital
[6]
  antimicrobial potency relative to hospital bottle: equi-potent to the hospital
[7]; P. aeruginosa, Mann Whitney U Test
  antimicrobial potency relative to hospital bottle: more potent than the hospital

## CN[C@@H]1[C@@H](O)[C@@H](O[C@@H]2[C@@H](O)[C@H](O[C@H]3O[C@H]([C@H](C)N)CC[C@H]3N)[C@@H](N)C[C@H]2N)OC[C@]1(C)O [C2a, gentamicin C2a]
[1]
  ototoxicity relative to hospital bottle: not significantly different from the hospital bottle
[1]; [8]
  EC50: 614 ± 69 µM

## CN[C@@H]1[C@@H](O)[C@@H](O[C@@H]2[C@@H](O)[C@H](O[C@H]3O[C@H]([C@@H](C)NC)CC[C@H]3N)[C@@H](N)C[C@H]2N)OC[C@]1(C)O [C1, gentamicin C1]
[2]
  antimicrobial potency among the components: lowest antimicrobial potency
[1]
  ototoxicity relative to hospital bottle: not significantly different from the hospital bottle
[1]; [8]
  EC50: 755 ± 60 µM
[5]; S. aureus
  antimicrobial potency relative to hospital bottle: less potent than the hospital bottle; also recorded: less antimicrobial than the hospital bottle
[5]; S. aureus, n=10 strains
  Geomean MIC: 0.53 µg/mL and 0.54 µg/mL
[7]; P. aeruginosa, n≥8 strains
  Geomean MIC: 1.52 µg/mL

## gentamicin C1a
[1]
  EC50: 816 ± 18 µM
[5]
  Geomean MIC: 0.29 µg/mL
  antimicrobial potency relative to C1 component: more antimicrobial than the C1 component
[7]
  Geomean MIC: 0.71 µg/mL
  antimicrobial potency relative to C1 component: more antimicrobial than the C1 component

## CNC[C@@H]1CC[C@@H](N)[C@@H](O[C@H]2[C@H](O)[C@@H](O[C@H]3OC[C@](C)(O)[C@H](NC)[C@H]3O)[C@H](N)C[C@@H]2N)O1 [C2b, gentamicin C2b]
[1]
  ototoxicity relative to hospital bottle: less ototoxic than the hospital bottle
[1]; [8]
  EC50: 1200 ± 114 µM
